Values joined by “and” are separate entries in the source; they are usually repeats but may differ in a detail not shown here. Equal entries are not always repeated.
What follows are molecules tested on Chinese Hamster Ovarian (CHO) cell line (assay: Cytotoxicity MTT assay). Details: not given.
Type: cell-based

Molecule | Cytotoxicity (in words)
O[C@@H]1c2ccccc2-c2c3c(cc4c2[C@@H]1NCC4)OCO3 [Compound 2, norushinsunine] | no observable cytotoxicity

Same assay, conditions: CHO cells; MTT

Molecule | Cytotoxicity (in words)
COc1cc2c(cc1OC)-c1c(OC)c(OC)cc3ccnc(c13)C2=O [Compound 6, oxoglaucine] | no observable cytotoxicity
COc1cc2c(cc1OC)-c1c(OC)c(OC)cc3c1[C@H](C2)NCC3 [Compound 3, norglaucine] | no observable cytotoxicity

Same assay, conditions: CHO cells; MTT; triplicate

Molecule | CHO Cell line (IC50) [µg/mL]
C=C1C(=O)O[C@@H]2C3O[C@]3(C)CC/C=C(\C)C[C@@H](OC(C)=O)[C@@H]12 (stereo partly drawn) [Compound 8, lipiferolide] | 1.4 ± 0.2
O[C@@H]1c2ccccc2-c2c3c(cc4c2[C@@H]1NCC4)OCO3 [Compound 2, norushinsunine] | > 100
asimilobine [Compound 1] | > 100
C=C1C(=O)O[C@H]2[C@H]1[C@H](OC(C)=O)CC(=C)[C@H](OO)CC[C@@]1(C)O[C@H]21 [Compound 7, peroxyferolide] | 3.2 ± 0.6
COc1cc2c(cc1OC)-c1c(OC)c(OC)cc3c1[C@H](C2)NCC3 [Compound 3, norglaucine] | > 100

Same assay, conditions: SI = IC50 CHO / IC50 D10

Molecule | Selectivity index (SI)
C=C1C(=O)O[C@@H]2C3O[C@]3(C)CC/C=C(\C)C[C@@H](OC(C)=O)[C@@H]12 (stereo partly drawn) [Compound 8, lipiferolide] | 0.8
c1ccc2c(c1)C[C@H]1NCCc3cc4c(c-2c31)OCO4 [Compound 5, anonaine] | > 83
O[C@@H]1c2ccccc2-c2c3c(cc4c2[C@@H]1NCC4)OCO3 [Compound 2, norushinsunine] | > 3
COc1cc2c(cc1OC)-c1c(OC)c(OC)cc3ccnc(c13)C2=O [Compound 6, oxoglaucine] | > 11
asimilobine [Compound 1] | > 83
C=C1C(=O)O[C@H]2[C@H]1[C@H](OC(C)=O)CC(=C)[C@H](OO)CC[C@@]1(C)O[C@H]21 [Compound 7, peroxyferolide] | 0.5
COc1cc2c(cc1OC)-c1c(OC)c(OC)cc3c1[C@H](C2)NCC3 [Compound 3, norglaucine] | > 5
O=C1c2ccccc2-c2c3c(cc4ccnc1c24)OCO3 [Compound 4, liriodenine] | 2.0

Same assay, conditions: read-out: CHO Cell line (IC50); CHO cells; MTT; triplicate

Molecule | IC50 [µM]
C=C1C(=O)O[C@@H]2C3O[C@]3(C)CC/C=C(\C)C[C@@H](OC(C)=O)[C@@H]12 (stereo partly drawn) [Compound 8, lipiferolide] | 4.6 ± 0.7
O[C@@H]1c2ccccc2-c2c3c(cc4c2[C@@H]1NCC4)OCO3 [Compound 2, norushinsunine] | > 300
asimilobine [Compound 1] | > 300
C=C1C(=O)O[C@H]2[C@H]1[C@H](OC(C)=O)CC(=C)[C@H](OO)CC[C@@]1(C)O[C@H]21 [Compound 7, peroxyferolide] | 9.5 ± 1.8
COc1cc2c(cc1OC)-c1c(OC)c(OC)cc3c1[C@H](C2)NCC3 [Compound 3, norglaucine] | > 300

What follows are molecules tested on Plasmodium falciparum D10 (assay: Antiplasmodial pLDH assay, chloroquine-sensitive strain D10). Details: CQ-sensitive D10 strain; pLDH; triplicate; ten point dose response.
Type: cell-based

Molecule | Plasmodium falciparum D10 (IC50) [µg/mL]
C=C1C(=O)O[C@@H]2C3O[C@]3(C)CC/C=C(\C)C[C@@H](OC(C)=O)[C@@H]12 (stereo partly drawn) [Compound 8, lipiferolide] | 1.8 ± 0.7
O[C@@H]1c2ccccc2-c2c3c(cc4c2[C@@H]1NCC4)OCO3 [Compound 2, norushinsunine] | 29.6 ± 3.9
asimilobine [Compound 1] | 1.2 ± 0.1
C=C1C(=O)O[C@H]2[C@H]1[C@H](OC(C)=O)CC(=C)[C@H](OO)CC[C@@]1(C)O[C@H]21 [Compound 7, peroxyferolide] | 6.2 ± 0.1
COc1cc2c(cc1OC)-c1c(OC)c(OC)cc3c1[C@H](C2)NCC3 [Compound 3, norglaucine] | 22.0 ± 2.8

Same assay, conditions: Plasmodium falciparum, D10, read-out: Plasmodium falciparum D10 (IC50)

Molecule | IC50
c1ccc2c(c1)C[C@H]1NCCc3cc4c(c-2c31)OCO4 [Compound 5, anonaine] | 1.2 µg/mL and 4.5 µM
COc1cc2c(cc1OC)-c1c(OC)c(OC)cc3ccnc(c13)C2=O [Compound 6, oxoglaucine] | 9.1 µg/mL and 25.9 µM
CCN(CC)CCCC(C)Nc1ccnc2cc(Cl)ccc12 (stereo not drawn) [Chloroquine, Chloroquine diphosphate, reference compound] | 0.01 µg/mL and 30 nM
O=C1c2ccccc2-c2c3c(cc4ccnc1c24)OCO3 [Compound 4, liriodenine] | 4.1 µg/mL and 14.9 µM

Same assay, conditions: read-out: Plasmodium falciparum D10 (IC50); CQ-sensitive D10 strain; pLDH; triplicate; ten point dose response

Molecule | IC50 [µM]
C=C1C(=O)O[C@@H]2C3O[C@]3(C)CC/C=C(\C)C[C@@H](OC(C)=O)[C@@H]12 (stereo partly drawn) [Compound 8, lipiferolide] | 5.9 ± 2.3
O[C@@H]1c2ccccc2-c2c3c(cc4c2[C@@H]1NCC4)OCO3 [Compound 2, norushinsunine] | 105 ± 13.9
asimilobine [Compound 1] | 4.5 ± 0.3
C=C1C(=O)O[C@H]2[C@H]1[C@H](OC(C)=O)CC(=C)[C@H](OO)CC[C@@]1(C)O[C@H]21 [Compound 7, peroxyferolide] | 18.3 ± 0.3
COc1cc2c(cc1OC)-c1c(OC)c(OC)cc3c1[C@H](C2)NCC3 [Compound 3, norglaucine] | 64.4 ± 8.2

Each molecule was assayed on Plasmodium falciparum Dd2 (assay: Antiplasmodial pLDH assay, chloroquine-resistant strain Dd2). Details: CQ-resistant Dd2 strain; pLDH; triplicate; ten point dose response.
Type: cell-based

Molecule | Plasmodium falciparum Dd2: IC50 [µg/mL]
C=C1C(=O)O[C@@H]2C3O[C@]3(C)CC/C=C(\C)C[C@@H](OC(C)=O)[C@@H]12 (stereo partly drawn) [Compound 8, lipiferolide] | 2.3 ± 0.1
O[C@@H]1c2ccccc2-c2c3c(cc4c2[C@@H]1NCC4)OCO3 [Compound 2, norushinsunine] | 30.9 ± 2.3
asimilobine [Compound 1] | 5.8 ± 1.3
C=C1C(=O)O[C@H]2[C@H]1[C@H](OC(C)=O)CC(=C)[C@H](OO)CC[C@@]1(C)O[C@H]21 [Compound 7, peroxyferolide] | 4.3 ± 1.2
COc1cc2c(cc1OC)-c1c(OC)c(OC)cc3c1[C@H](C2)NCC3 [Compound 3, norglaucine] | 32.2 ± 1.3

Same assay, conditions: Plasmodium falciparum, DD2, read-out: Plasmodium falciparum Dd2: IC50

Molecule | IC50
c1ccc2c(c1)C[C@H]1NCCc3cc4c(c-2c31)OCO4 [Compound 5, anonaine] | 5.2 µg/mL and 19.6 µM
COc1cc2c(cc1OC)-c1c(OC)c(OC)cc3ccnc(c13)C2=O [Compound 6, oxoglaucine] | 20.8 µg/mL and 59.2 µM
CCN(CC)CCCC(C)Nc1ccnc2cc(Cl)ccc12 (stereo not drawn) [Chloroquine, Chloroquine diphosphate, reference compound] | 0.07 µg/mL and 230 nM
O=C1c2ccccc2-c2c3c(cc4ccnc1c24)OCO3 [Compound 4, liriodenine] | 7.9 µg/mL and 28.7 µM

Same assay, conditions: RI = IC50 Dd2 / IC50 D10

Molecule | Resistance index (RI)
C=C1C(=O)O[C@@H]2C3O[C@]3(C)CC/C=C(\C)C[C@@H](OC(C)=O)[C@@H]12 (stereo partly drawn) [Compound 8, lipiferolide] | 1.3
c1ccc2c(c1)C[C@H]1NCCc3cc4c(c-2c31)OCO4 [Compound 5, anonaine] | 4.2
O[C@@H]1c2ccccc2-c2c3c(cc4c2[C@@H]1NCC4)OCO3 [Compound 2, norushinsunine] | 1.0
COc1cc2c(cc1OC)-c1c(OC)c(OC)cc3ccnc(c13)C2=O [Compound 6, oxoglaucine] | 2.3
asimilobine [Compound 1] | 4.8
C=C1C(=O)O[C@H]2[C@H]1[C@H](OC(C)=O)CC(=C)[C@H](OO)CC[C@@]1(C)O[C@H]21 [Compound 7, peroxyferolide] | 0.7
COc1cc2c(cc1OC)-c1c(OC)c(OC)cc3c1[C@H](C2)NCC3 [Compound 3, norglaucine] | 1.5
O=C1c2ccccc2-c2c3c(cc4ccnc1c24)OCO3 [Compound 4, liriodenine] | 1.9

Same assay, conditions: read-out: Plasmodium falciparum Dd2: IC50; CQ-resistant Dd2 strain; pLDH; triplicate; ten point dose response

Molecule | IC50 [µM]
C=C1C(=O)O[C@@H]2C3O[C@]3(C)CC/C=C(\C)C[C@@H](OC(C)=O)[C@@H]12 (stereo partly drawn) [Compound 8, lipiferolide] | 7.5 ± 0.3
O[C@@H]1c2ccccc2-c2c3c(cc4c2[C@@H]1NCC4)OCO3 [Compound 2, norushinsunine] | 110 ± 8.1
asimilobine [Compound 1] | 21.7 ± 6.3
C=C1C(=O)O[C@H]2[C@H]1[C@H](OC(C)=O)CC(=C)[C@H](OO)CC[C@@]1(C)O[C@H]21 [Compound 7, peroxyferolide] | 12.7 ± 3.5
COc1cc2c(cc1OC)-c1c(OC)c(OC)cc3c1[C@H](C2)NCC3 [Compound 3, norglaucine] | 94.3 ± 3.8
